Consider 31 molecules from the CombiSolv-Exp solvation set (Vermeire and Green 2021).

A short description of this data set: solvent given as SMILES.
[1] abbreviates: in CCCCCCCCC=CCCCCCCCC(=O)OCC(COC(=O)CCCCCCCC=CCCCCCCCC)OC(=O)CCCCCCCC=CCCCCCCCC

Consider `Cc1c[nH]cn1`, for which the “solvation free energy, 298 K” value (in O) is -10.3 kcal/mol.

`CCCCCCCCCCCCCCCC`: the “solvation free energy, 298 K” value was -8.9 kcal/mol (in CCO); -11.4 kcal/mol (in ClC(Cl)(Cl)Cl); -9.66 kcal/mol (in ClCCCl); -7.93 kcal/mol (in O=Cc1ccco1); -5.77 kcal/mol (in OCCOCCO).

In the case of `CCc1cccc(CC)c1N(COC)C(=O)CCl`, the “solvation free energy, 298 K” value (in O) was -8.21 kcal/mol.

`O=S(=O)(c1ccccc1)c1ccccc1`: the “solvation free energy, 298 K” value runs as follows: (in C1CCOC1) -14.9 kcal/mol; (in C1COCCO1) -15 kcal/mol; (in CC(C)(C)O) -13.2 kcal/mol; (in CC(C)CC(C)(C)C) -11.6 kcal/mol; (in CC(C)CCO) -13.1 kcal/mol; (in CC(C)CO) -13.2 kcal/mol. Also, the “solvation free energy, 298 K” value reads like this: (in CC(C)O) -13.2 kcal/mol; (in CC(C)OC(C)C) -13.1 kcal/mol; (in CCC(C)CO) -13.2 kcal/mol; (in CCC(C)O) -13.4 kcal/mol; (in CCCC(C)O) -13.1 kcal/mol; (in CCCCCC) -11.8 kcal/mol. The “solvation free energy, 298 K” value was -11.8 kcal/mol (in CCCCCCC); -11.8 kcal/mol (in CCCCCCCC); -11.8 kcal/mol (in CCCCCCCCCC); -12.8 kcal/mol (in CCCCCCCCCCO); -13.1 kcal/mol (in CCCCCCCO); -13.2 kcal/mol (in CCCCCCO). In addition, the “solvation free energy, 298 K” value (in CCCCCO) was -13.3 kcal/mol; the “solvation free energy, 298 K” value (in CCCCCl) is -14.1 kcal/mol; the “solvation free energy, 298 K” value (in CCCCO) was -13.4 kcal/mol; the “solvation free energy, 298 K” value (in CCCCOC(C)=O) was -14.2 kcal/mol; the “solvation free energy, 298 K” value (in CCCCOCCCC) is -12.8 kcal/mol; the “solvation free energy, 298 K” value (in CCCO) is -13.5 kcal/mol. Moreover, the “solvation free energy, 298 K” value is -13.6 kcal/mol (in CCO); -14.6 kcal/mol (in CCOC(C)=O); -13.7 kcal/mol (in CCOCC); -13.8 kcal/mol (in CO); -13.5 kcal/mol (in COC(C)(C)C); -14.7 kcal/mol (in COC(C)=O). Further, the “solvation free energy, 298 K” value (in O) was -10.1 kcal/mol.

Turning to `FC(F)C(F)(F)F`, the “solvation free energy, 298 K” value by setting is: (in CCCCCCCC(=O)OCC(COC(=O)CCCCCCC)OC(=O)CCCCCCC) -0.79 kcal/mol; (in CCCCCCCCC) -0.39 kcal/mol; (in CCCCCCCCO) -0.57 kcal/mol; (in CN(C)C=O) -1.54 kcal/mol; (in O) 1.45 kcal/mol.

Consider `Oc1c(I)cc(I)cc1I`, for which the “solvation free energy, 298 K” value is, setting by setting: (in CC(C)CC(C)(C)C) -12.4 kcal/mol; (in CCCCOCCCC) -14.2 kcal/mol; (in O) -7.16 kcal/mol.

`CC(N)=O`: the “solvation free energy, 298 K” value is -4.98 kcal/mol (in C=CCCCCCCC=C) and -4.26 kcal/mol (in C=CCCCCCCCCCCCCCC).

As for `NC1CCCCC1`, the “solvation free energy, 298 K” value (in C1CCCCC1) was -5.47 kcal/mol.

In the case of `CC(C)CC(=O)O`, the “solvation free energy, 298 K” value (in O) was -6.09 kcal/mol.

With `COCCCNc1nc(NC(C)C)nc(SC)n1`, the “solvation free energy, 298 K” value (in O) was -11.9 kcal/mol.

For `COC(=O)c1ccc(Br)cc1`, the “solvation free energy, 298 K” value is, setting by setting: (in CN(C)C=O) -9.25 kcal/mol; (in O) -4.26 kcal/mol.

Take `CC(C)S`: the “solvation free energy, 298 K” value (in O) was -0.7 kcal/mol.

For `Clc1cccc(Cl)c1`, the “solvation free energy, 298 K” value runs as follows: (in CCCCCC) -6.18 kcal/mol; (in CCCCCCCCO) -5.63 kcal/mol; (in O) -1.05 kcal/mol.

For `COP(=O)(OC)OC`, the “solvation free energy, 298 K” value (in O) is -8.7 kcal/mol.

As to `Nc1ccccc1Cl`, the “solvation free energy, 298 K” value (in O) was -4.91 kcal/mol.

Turning to `Nc1ccc(C(=O)O)cc1`, the “solvation free energy, 298 K” value was -14.6 kcal/mol (in C1COCCO1); -13.7 kcal/mol (in CC(C)CCO); -13.8 kcal/mol (in CC(C)CO); -14.2 kcal/mol (in CC(C)O); -14 kcal/mol (in CCC(C)O); -13.9 kcal/mol (in CCCC(C)O). Further, the “solvation free energy, 298 K” value (in CCCCCCCCCCO) was -13.3 kcal/mol; the “solvation free energy, 298 K” value (in CCCCCCCCO) was -13.5 kcal/mol; the “solvation free energy, 298 K” value (in CCCCCCCO) was -13.7 kcal/mol; the “solvation free energy, 298 K” value (in CCCCCCO) is -13.8 kcal/mol; the “solvation free energy, 298 K” value (in CCCCCO) is -13.9 kcal/mol; the “solvation free energy, 298 K” value (in CCCCO) is -14.1 kcal/mol. Moreover, the “solvation free energy, 298 K” value runs as follows: (in CCCO) -14.3 kcal/mol; (in CCO) -14.6 kcal/mol; (in CCOCC) -13.6 kcal/mol.

`CCCOC=O`: the “solvation free energy, 298 K” value reads like this: (in CCCCCCCCCCCCCCCC) -3.29 kcal/mol; (in CCCCCCCCO) -3.64 kcal/mol; (in O) -2.51 kcal/mol; (in [2H]O[2H]) -2.55 kcal/mol.

For `Clc1cc(Cl)c(Cl)cc1Cl`, the “solvation free energy, 298 K” value was -7.67 kcal/mol (in CCCCCCCCO) and -1.34 kcal/mol (in O).

Regarding `CCOC(C)=O`, the “solvation free energy, 298 K” value was -3.95 kcal/mol (in Brc1cccc2ccccc12); -4.56 kcal/mol (in C1CCOC1); -4.49 kcal/mol (in C1COCCO1); -3.23 kcal/mol (in C=CCCCCCCCCCCCCCC); -4.23 kcal/mol (in CC(=O)N(C)C); -4.29 kcal/mol (in CC(=O)OCc1ccccc1). The “solvation free energy, 298 K” value (in CC(C)CC(C)(C)C) is -3.53 kcal/mol; the “solvation free energy, 298 K” value (in CC(C)CCCC(C)CCCC(C)CCCCC(C)CCCC(C)CCCC(C)C) is -3.2 kcal/mol; the “solvation free energy, 298 K” value (in CC(C)O) was -3.9 kcal/mol; the “solvation free energy, 298 K” value (in CCC(C)=O) is -4.49 kcal/mol; the “solvation free energy, 298 K” value (in CCCC=O) is -4.49 kcal/mol; the “solvation free energy, 298 K” value (in CCCCC(CC)COC(=O)CCCCC(=O)OCC(CC)CCCC) is -3.73 kcal/mol. For the same molecule, the “solvation free energy, 298 K” value was -3.61 kcal/mol (in CCCCCC); -3.67 kcal/mol (in CCCCCC=CCC=CCCCCCCCC(=O)O); -3.53 kcal/mol (in CCCCCCC); -3.4 kcal/mol (in CCCCCCCC); -3.72 kcal/mol under setting [1]; -3.28 kcal/mol (in CCCCCCCCCC). Moreover, the “solvation free energy, 298 K” value is, setting by setting: (in CCCCCCCCCCCCCC) -3.24 kcal/mol; (in CCCCCCCCCCCCCCCC) -3.23 kcal/mol; (in CCCCCCCCO) -3.69 kcal/mol; (in CCCCCO) -3.87 kcal/mol; (in CCCCCl) -4.32 kcal/mol; (in CCCCN(C=O)CCCC) -3.96 kcal/mol. Besides, the “solvation free energy, 298 K” value (in CCCCO) was -3.97 kcal/mol; the “solvation free energy, 298 K” value (in CCO) is -4.06 kcal/mol; the “solvation free energy, 298 K” value (in CCOC(=O)c1ccccc1C(=O)OCC) is -3.94 kcal/mol; the “solvation free energy, 298 K” value (in CCOCCO) is -4.14 kcal/mol; the “solvation free energy, 298 K” value (in CCOP(=O)(OCC)OCC) is -4.13 kcal/mol; the “solvation free energy, 298 K” value (in CN1CCCC1=O) is -4.16 kcal/mol. For the same molecule, the “solvation free energy, 298 K” value (in CN1CCCCC1=O) is -4.16 kcal/mol; the “solvation free energy, 298 K” value (in CN1CCN(C)C1=O) is -3.98 kcal/mol; the “solvation free energy, 298 K” value (in CN(C)C=O) was -4.32 kcal/mol; the “solvation free energy, 298 K” value (in CNC(C)=O) is -4.04 kcal/mol; the “solvation free energy, 298 K” value (in CO) was -4.38 kcal/mol; the “solvation free energy, 298 K” value (in COP(=O)(OC)OC) was -4.28 kcal/mol. Also, the “solvation free energy, 298 K” value is -3.88 kcal/mol (in CS(C)=O); -4.21 kcal/mol (in Cc1ccc(C)cc1); -4.15 kcal/mol (in Cc1cccc(C)c1); -4.71 kcal/mol (in ClCCCl); -5.22 kcal/mol (in ClCCl); -4.43 kcal/mol (in Clc1ccccc1). Further, the “solvation free energy, 298 K” value (in NC=O) is -3.61 kcal/mol; the “solvation free energy, 298 K” value (in O) was -2.95 kcal/mol; the “solvation free energy, 298 K” value (in O=C1CCCCC1) is -4.33 kcal/mol; the “solvation free energy, 298 K” value (in O=CN1CCOCC1) is -3.89 kcal/mol; the “solvation free energy, 298 K” value (in OCCOCCO) is -3.53 kcal/mol; the “solvation free energy, 298 K” value (in [2H]O[2H]) was -3.02 kcal/mol. Also, the “solvation free energy, 298 K” value (in c1ccc2ncccc2c1) is -4.07 kcal/mol.

In the case of `CCCOC(=O)c1ccc(O)cc1`, the “solvation free energy, 298 K” value (in O) is -9.37 kcal/mol.

As to `Oc1cccc(O)c1`, the “solvation free energy, 298 K” value is -5.78 kcal/mol (in CCCCCC); -5.84 kcal/mol (in CCCCCCC); -5.85 kcal/mol (in CCCCCCCC); -8.35 kcal/mol (in Cc1ccc(C)cc1); -8.33 kcal/mol (in Cc1cccc(C)c1); -8.33 kcal/mol (in Cc1ccccc1C). For the setting “in O”, the “solvation free energy, 298 K” value is -11.4 kcal/mol.

In the case of `CC1=CCC(=C(C)C)CCC(C)=CCC1`, the “solvation free energy, 298 K” value (in O) was -0.37 kcal/mol.

`CCOP(=S)(OCC)SCSc1ccc(Cl)cc1`: the “solvation free energy, 298 K” value (in O) was -6.5 kcal/mol.

For the molecule `C=CC(C)(CCC=C(C)C)OC(=O)CC` (stereo unspecified), for the setting “in O”, the “solvation free energy, 298 K” value was -3.26 kcal/mol.

`CC(C)Cc1cnccn1`: for the setting “in O”, the “solvation free energy, 298 K” value was -5.04 kcal/mol.

Regarding `CCOC(=O)OCC`, the “solvation free energy, 298 K” value by setting is: (in COC(C)(C)C) -5.35 kcal/mol; (in ClC(Cl)(Cl)Cl) -5.78 kcal/mol; (in O) -3.28 kcal/mol.

For the molecule `ClC(Cl)(Cl)C(Cl)(Cl)Cl`, the “solvation free energy, 298 K” value is -5.42 kcal/mol under setting [1] and -6.1 kcal/mol (in CCCCCCCCO).

Turning to `CN1CCCC1c1cccnc1` (stereo unspecified), the “solvation free energy, 298 K” value (in O) is -7.98 kcal/mol.

`CC=CC=O`: where the note is “in O=CN1CCOCC1”, the “solvation free energy, 298 K” value is -4.69 kcal/mol.

On to `CCC(C)C(C)O` (stereo unspecified), for which the “solvation free energy, 298 K” value is, setting by setting: (in CCCCCCCC) -4.87 kcal/mol; (in CCCCCCCCCC) -4.81 kcal/mol.

On to `OCCCc1ccccc1`, for which the “solvation free energy, 298 K” value (in O) is -6.92 kcal/mol.
